Values quoted from earlier work as cited in US20040197402A1, “Oxcarbazepine dosage forms” (priority 2001, published 2004).

Conditions: background statement

- solubility in water: poor solubility in water
SMILES: NC(=O)N1c2ccccc2CC(=O)c2ccccc21 [Oxcarbazepine, 10, 11-dihydro-10-oxo-5H-dibenz [b,f], azepine-5-carboxamide]
